Reference: patent publication US11649233B2, “Halo-allylamine SSAO/VAP-1 inhibitor and use thereof” (Nanjing Transthera Biosciences Co., Ltd., priority 2017, dated 2023)
Structures can show the parent of a compound that is named as a salt.

Assays:
[1] = Stability test in human liver microsome; type: in vitro ADME; details: human liver microsome 0.5 mg protein/mL, compound 1 μM, β-NADPH
Protocol: Biological Example 3: Stability Test of the Compounds of the Present Invention in Human Liver Microsome
The composition of the incubation system:
(1) The liver microsome (20 mg protein/mL) was removed from the −80° C. refrigerator, pre-incubated in a 37° C. water bath constant temperature oscillator for 3 minutes, and thawed for use.
(2) A mixed solution of the incubation system (excluding compound and β-NADPH) according to the above “composition of the incubation system” for the test was prepared, and pre-incubated in a 37° C. water bath constant temperature oscillator for 2 minutes.
(3) Control group (excluding β-NADPH): 30 μL of water and 30 μL of compound working solution (concentration: 10 μM) were added to 240 μL of the mixed solution of the incubation system of step (2), and vortexed for 30 seconds to mix well. The total reaction volume was 300 μL. A duplicate sample was prepared. The sample was incubated in a 37° water bath constant temperature oscillator. The timing began and the sampling time points were set at 0 minute and 60 minutes.
(4) Sample group: 70 μL β-NADPH solution (10 mM) and 70 μL compound working solution (concentration: 10 μM) were added to 560 μL of the mixed solution in step (2). The total reaction volume was 700 μL. The resulting mixture was vortexed for 30 seconds to mix well. A duplicate sample was prepared. The sample was incubated in a 37° C. water bath constant temperature oscillator. The timing began and the sampling time points were set at 0 minute, 5 minutes, 10 minutes, 20 minutes, 30 minutes, and 60 minutes after timing.
(5) After vortexing for 3 minutes, the sample was centrifuged at 12000 rpm for 5 minutes.
(6) 150 μL of water was added to 50 μL of the supernatant. The resulting mixture was evenly mixed in vortex, and the sample LC/MS/MS analysis was performed.

[2] = target: T1, rhVAP-1 (Homo sapiens (Human), UniProt Q16853); assay: Inhibition activity of the compounds on the rhVAP-1 enzyme (Amplex Red/HRP fluorescence, benzylamine substrate); type: biochemical; details: 30 minutes pre-incubation at 37° C.
Protocol: 1. Inhibition Activity of the Compounds on the rhVAP-1 Enzyme
Multifunctional microplate reader (MD, FlexStation 3), black bottom-impermeable 96-well plate (Corning), rhVAP-1 (PeproTech)
An appropriate amount of the test compound was dissolved in DMSO to 10 mM and stored. Before the experiment, an appropriate amount of 10 mM test compound mother liquor was diluted to 10 μM solution with DMSO. Then 3-fold gradient dilution with DMSO was performed, and 10 concentration gradients were formed.
An appropriate amount of protein diluent was added to the rhVAP-1 powder to obtain 1 mg/mL of the mother liquor for storage. Before the experiment, the dilution with PBS provided a 4×concentration of the enzyme solution.
An appropriate amount of benzylamine was added to PBS and dissolved to obtain 200 mM of the benzylamine solution. 2 mM Amplex Red mother liquor and 500 U/mL HRP mother liquor were added. The dilution with PBS provided 2×concentration substrate mixed solution.
(§1) First, 10 μL of compound solutions of different concentrations, 25 μL of 4×rhVAP-1 enzyme solution and 15 μL of PBS were added to a 96-well plate, evenly mixed by oscillation, and incubated at 37° C. for 30 minutes. Then 50 μL of 2×substrate mixed solution was added to each well, and immediately the detection was performed with the microplate reader in a condition of an exciting light at 565 nm, an emitting light at 590 nm, the fluorescence intensity for detecting each well of 5 minutes/run, and a total detection time of 25 minutes. The inhibition rate was calculated according to the following formula: V(RFU/min)=(Ft(RFU)−F0(RFU))/(Time(min)) Inhibition rate (%)=100%−Vcmpd(RFU/min)/V max(RFU/min)×100%
(§2) V: the fluorescence change rate; Ft: fluorescence reading at the time point t; F0: fluorescence reading at the time point 0; Time: time period t; Vcmpd: the fluorescence change rate of the test compound; Vmax: the Max well fluorescence change rate.
(§3) The log values of the concentrations were taken as the X-axis and the percent inhibition rates were taken as the Y-axis, and the dose-effect curve was fitted using the log(inhibitor) vs. response-Variable slope of the analytical software GraphPad Prism 5 to obtain the IC50 value of each compound for enzyme activity.

[3] = target: MAO-B (Homo sapiens (Human), UniProt P27338); assay: Selectivity of the compounds for MAO-B enzyme (MAO-Glo); type: biochemical; details: 60 minutes pre-incubation at 37° C.
Protocol: (§4) 2. Selectivity of the Compounds for MAO-A/B Enzymes
(§5) Microplate reader (Perkin Elmer, Envision), 384 well plates (Perkin Elmer), centrifuge (Eppendorf), MAO-Glo™ (Promega), MAO-A (Active Motif) and MAO-B (Active Motif).
(§6) An appropriate amount of the test compound was dissolved in DMSO to 10 mM and stored. Before the experiment, an appropriate amount of 10 mM test compound mother liquor was diluted to 100 μM solution with DMSO. Then 4-fold gradient dilution with DMSO was performed, and 6 concentration gradients were formed.
(§7) The MAO-A/B mother liquor was diluted to 2×concentration enzyme solution with the assay buffer solution for the MAO-A/B.
(§8) The mother liquor of the MAO-A/B substrate mixed solution was diluted to 2×concentration substrate mixed solution with the assay buffer solution for the MAO-A/B.
(§9) 200 nL of compound solutions of different concentrations or solvent
(§10) and 10 μL of 2×MAO-A/B enzyme solution were added to a 384-well plate, evenly mixed by oscillation, and incubated at 37° C. for 60 minutes. Then 10 μL of 2×substrate mixed solution was added to each well, and immediately the detection was performed with the microplate reader in a condition of an exciting light at 535 nm, an emitting light at 587 nm, the fluorescence intensity for detecting each well of 5 minutes/run, and a total detection time of 25 minutes.
(§11) The inhibition rate was calculated according to the following formula: V(RFU/min)=(Ft(RFU)−F0(RFU))/(Time(min)) Inhibition rate (%)=100%−Vcmpd(RFU/min)/V max(RFU/min)×100%
as §2, §3

[4] = target: MAO-A (Homo sapiens (Human), UniProt P21397); assay: Selectivity of the compounds for MAO-A enzyme (MAO-Glo); type: biochemical; details: 60 minutes pre-incubation at 37° C.
Protocol: as §4, §5, §6, §7, §8, §9, §10, §11, §2, §3

[5] = target: T1, rhVAP-1; assay: Time-dependent inhibition assay for the rhVAP-1 enzyme; type: biochemical
Protocol: Biological example 4: Time-dependent inhibition assay for the rhVAP-1 enzyme
After incubation of the test substances at corresponding time intervals according to Table 4, the activity was measured at each time point in the same manner as in the rhVAP-1 enzymatic test method of biological example 1.
as §1, with “Specifically,” for “First,”, “concentrations or solvent,” for “concentrations,”, “0 minutes, 3 minutes, 6 minutes, 9 minutes and 12” for “30”, “minutes.” for “minutes. The inhibition rate was calculated according to the following formula: V(RFU/min)=(Ft(RFU)−F0(RFU))/(Time(min)) Inhibition rate (%)=100%−Vcmpd(RFU/min)/V max(RFU/min)×100%”

Sequence of MAO-B (P27338 whole entry): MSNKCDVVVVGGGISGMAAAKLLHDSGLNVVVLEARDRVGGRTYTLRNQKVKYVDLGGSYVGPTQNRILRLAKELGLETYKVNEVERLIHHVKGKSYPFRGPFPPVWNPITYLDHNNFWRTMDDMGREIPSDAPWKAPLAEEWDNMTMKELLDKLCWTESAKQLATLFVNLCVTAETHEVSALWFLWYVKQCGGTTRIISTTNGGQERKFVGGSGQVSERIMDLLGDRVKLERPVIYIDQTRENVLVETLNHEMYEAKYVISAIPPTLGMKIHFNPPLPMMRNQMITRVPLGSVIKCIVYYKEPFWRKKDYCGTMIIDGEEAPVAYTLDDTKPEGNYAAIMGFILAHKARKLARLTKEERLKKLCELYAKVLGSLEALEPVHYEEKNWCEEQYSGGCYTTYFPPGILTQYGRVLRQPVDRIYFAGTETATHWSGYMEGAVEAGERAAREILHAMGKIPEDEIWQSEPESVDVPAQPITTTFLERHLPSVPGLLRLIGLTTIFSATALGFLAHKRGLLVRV
T1 sequence (Q16853 whole entry): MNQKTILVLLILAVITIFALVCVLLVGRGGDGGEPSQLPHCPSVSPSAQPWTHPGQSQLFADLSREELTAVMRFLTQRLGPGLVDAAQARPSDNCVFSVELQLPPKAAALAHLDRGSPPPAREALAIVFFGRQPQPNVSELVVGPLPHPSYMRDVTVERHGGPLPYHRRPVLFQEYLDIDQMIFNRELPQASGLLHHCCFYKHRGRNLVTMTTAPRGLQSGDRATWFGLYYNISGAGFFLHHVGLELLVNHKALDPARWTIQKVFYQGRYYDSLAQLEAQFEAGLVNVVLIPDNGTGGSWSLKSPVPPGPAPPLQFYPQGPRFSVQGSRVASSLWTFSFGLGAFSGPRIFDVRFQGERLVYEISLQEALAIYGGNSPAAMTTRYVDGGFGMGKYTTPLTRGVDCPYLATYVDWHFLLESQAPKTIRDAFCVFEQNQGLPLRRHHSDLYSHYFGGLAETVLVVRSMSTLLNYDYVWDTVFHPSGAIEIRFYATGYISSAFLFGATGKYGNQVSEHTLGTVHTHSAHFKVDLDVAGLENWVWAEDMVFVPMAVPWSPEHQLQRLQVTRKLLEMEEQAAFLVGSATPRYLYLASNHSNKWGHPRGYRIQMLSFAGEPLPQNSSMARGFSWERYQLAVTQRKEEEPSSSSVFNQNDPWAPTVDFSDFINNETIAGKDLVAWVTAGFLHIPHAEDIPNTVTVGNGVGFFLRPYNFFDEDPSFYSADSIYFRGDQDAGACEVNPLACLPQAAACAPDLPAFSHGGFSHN
Sequence of MAO-A (P21397 whole entry): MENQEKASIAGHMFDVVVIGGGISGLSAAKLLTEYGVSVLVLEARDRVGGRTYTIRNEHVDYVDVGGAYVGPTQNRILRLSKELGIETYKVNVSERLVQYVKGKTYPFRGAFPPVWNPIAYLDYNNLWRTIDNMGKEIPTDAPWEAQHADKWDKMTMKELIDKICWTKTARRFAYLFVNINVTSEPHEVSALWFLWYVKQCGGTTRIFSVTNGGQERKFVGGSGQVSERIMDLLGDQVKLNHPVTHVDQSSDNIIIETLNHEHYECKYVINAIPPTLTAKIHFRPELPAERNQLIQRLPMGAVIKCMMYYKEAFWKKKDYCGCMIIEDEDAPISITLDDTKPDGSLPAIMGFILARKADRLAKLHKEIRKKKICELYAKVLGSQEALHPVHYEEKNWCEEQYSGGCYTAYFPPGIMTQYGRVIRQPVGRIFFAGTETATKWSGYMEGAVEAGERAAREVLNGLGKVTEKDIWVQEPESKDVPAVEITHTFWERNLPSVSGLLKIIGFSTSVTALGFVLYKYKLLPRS

| ClH [1] | IC50 [2] [µM] | IC50 [3] [µM] | SMILES | other results |
| --- | --- | --- | --- | --- |
| →0 mL/min/kg | 0.021 |  | CCN(CC)C(=O)c1ccc(OC/C(=C/F)CN)cn1.Cl [Hydrochloride of Compound 19, (E)-5-((2-(aminomethyl)-3-fluoroallyl)oxy)-N,N-diethylpicolinamide] |  |
|  | 0.025 | 13 | NC/C(=C/F)COc1ccc2c(n1)CN(C1CC1)C2=O [Trifluoroacetate of Compound 25, (Z)-2-((2-(aminomethyl)-3-fluoroallyl)oxy)-6-cyclopropyl-6,7-dihydro-5H-pyrrolo[3,4-b]pyridin-5-one] |  |
|  | 0.016 | 38 | NC/C(=C\F)COc1cnc2c(c1)CN(C1CC1)C2=O [Hydrochloride of Compound 27, (E)-3-((2-(aminomethyl)-3-fluoroallyl)oxy)-6-cyclopropyl-5,6-dihydro-7H-pyrrolo[3,4-b]pyridin-7-one] |  |
| 2.94 mL/min/kg |  |  | NC/C(=C\F)COc1cc2c(cn1)C(=O)N(C1CC1)CC2 [Compound 22, (E)-6-((2-(aminomethyl)-3-fluoroallyl)oxy)-2-cyclopropyl-3,4-dihydro-2,7-naphthyridin-1(2H)-one] |  |
| 4.63 mL/min/kg |  |  | NC/C(=C/F)COc1ccc2c(n1)CCN(C1CC1)C2=O [Compound 23, (Z)-2-((2-(aminomethyl)-3-fluoroallyl)oxy)-6-cyclopropyl-7,8-dihydro-1,6-naphthyridin-5(6H)-one] |  |
|  | 0.011 |  | NC/C(=C/F)COc1ccc2c(c1)C(=O)N(C1CC1)C2=O [Hydrochloride of Compound 31, (Z)-5-((2-(aminomethyl)-3-fluoroallyl)oxy)-2-cyclopropylisoindolin-1,3-dione] |  |
| 0.18 mL/min/kg | 0.024 | 2.8 | Cl.NC/C(=C\F)COc1ccc2c(c1)CN(C1CC1)C2=O [Hydrochloride of Compound 16, (E)-5-((2-(aminomethyl)-3-fluoroallyl)oxy)-2-cyclopropyl isoindolin-1-one] |  |
| →0 mL/min/kg | 0.024 | 37 | NC/C(=C\F)COc1ccc2c(n1)CN(C1CC1)C2=O [Trifluoroacetate of Compound 24, (E)-2-((2-(aminomethyl)-3-fluoroallyl)oxy)-6-cyclopropyl-6,7-dihydro-5H-pyrrolo[3,4-b]pyridin-5-one] |  |
|  | 0.006 | 8.4 | NC/C(=C/F)COc1ccc2c(c1)CCN(C1CC1)C2=O [Hydrochloride of Compound 34, (Z)-6-((2-(aminomethyl)-3-fluoroallyl)oxy)-2-cyclopropyl-3,4-dihydroisoquinolin-1(2H)-one] |  |
| 4.18 mL/min/kg | 0.025 | 4.1 | Cl.NC/C(=C/F)COc1ccc2c(c1)CN(C1CC1)C2=O [Hydrochloride of Compound 29, (Z)-5-((2-(aminomethyl)-3-fluoroallyl)oxy)-2-cyclopropylisoindolin-1-one] |  |
|  | 0.03 | > 100 | NC/C(=C\F)COc1cnc2c(c1)CCNC2=O [Hydrochloride of Compound 8, (E)-3-((2-(aminomethyl)-3-fluoroallyl)oxy)-6,7-dihydro-1,7-naphthyridin-8(5H)-one] |  |
|  | 0.032 | 5.8 | NC/C(=C\F)COc1ccc2c(c1)C(=O)N(C1CC1)C2=O [Hydrochloride of Compound 30, (E)-5-((2-(aminomethyl)-3-fluoroallyl)oxy)-2-cyclopropyl isoindolin-1,3-dione] |  |
|  | 0.014 | 8.6 | NC/C(=C/F)COc1cc2c(cn1)C(=O)N(C1CC1)C2 [Trifluoroacetate of Compound 33, (Z)-6-((2-(aminomethyl)-3-fluoroallyl)oxy)-2-cyclopropyl-1,2-dihydro-3H-pyrrolo-[3,4-c]pyridin-3-one] |  |
|  | 0.014 | 19 | NC/C(=C/F)COc1ccc2c(n1)CCN(C1CC1)C2=O [Trifluoroacetate of Compound 23, (Z)-2-((2-(aminomethyl)-3-fluoroallyl)oxy)-6-cyclopropyl-7,8-dihydro-1,6-naphthyridin-5(6H)-one] | IC50 [4]: 10 µM; IC50 ([5]; pre-incubation 0 minute): 0.206 µM; IC50 ([5]; pre-incubation 3 minutes): 0.0186 µM; IC50 ([5]; pre-incubation 6 minutes): 0.0152 µM; IC50 ([5]; pre-incubation 9 minutes): 0.014 µM; IC50 ([5]; pre-incubation 12 minutes): 0.0125 µM |
|  | 0.051 | 8.8 | NC/C(=C\F)COc1ccc2c(n1)CCN(C1CC1)C2=O [Trifluoroacetate of Compound 26, (E)-2-((2-(aminomethyl)-3-fluoroallyl)oxy)-6-cyclopropyl-7,8-dihydro-1,6-naphthyridin-5(6H)-one] |  |
| 4.95 mL/min/kg | 0.021 | 14 | Cl.NC/C(=C\F)COc1cc2c(cn1)C(=O)N(C1CC1)C2 [Hydrochloride of Compound 21, (E)-6-((2-(aminomethyl)-3-fluoroallyl)oxy)-2-cyclopropyl-1,2-dihydro-3H-pyrrolo-[3,4-c]pyridin-3-one] | IC50 [4]: > 100 µM |
|  | 0.011 | 6.6 | NC/C(=C/F)COc1cc2c(cn1)C(=O)N(C1CC1)CC2 [Trifluoroacetate of Compound 32, (Z)-6-((2-(aminomethyl)-3-fluoroallyl)oxy)-2-cyclopropyl-3,4-dihydro-2,7-naphthyridine-1(2H)-one] |  |
| →0 mL/min/kg | 0.014 | 20 | Cl.NC/C(=C/F)COc1cnc2c(c1)CN(C1CC1)C2=O [Hydrochloride of Compound 28, (Z)-3-((2-(aminomethyl)-3-fluoroallyl)oxy)-6-cyclopropyl-5,6-dihydro-7H-pyrrolo[3,4-b]pyridin-7-one] |  |
